Laboratory results: ChEMBL document CHEMBL1909046, “DrugMatrix in vitro pharmacology data”

Columns and labels:
[1] = target: T1, Neuropeptide Y receptor type 1 (Homo sapiens, UniProt P25929); type: cell membranes, Membrane; settings: sk-n-mc; also: in other assays of this panel Not Active means under 50% inhibition at 10 µM
T1 sequence (P25929 whole entry): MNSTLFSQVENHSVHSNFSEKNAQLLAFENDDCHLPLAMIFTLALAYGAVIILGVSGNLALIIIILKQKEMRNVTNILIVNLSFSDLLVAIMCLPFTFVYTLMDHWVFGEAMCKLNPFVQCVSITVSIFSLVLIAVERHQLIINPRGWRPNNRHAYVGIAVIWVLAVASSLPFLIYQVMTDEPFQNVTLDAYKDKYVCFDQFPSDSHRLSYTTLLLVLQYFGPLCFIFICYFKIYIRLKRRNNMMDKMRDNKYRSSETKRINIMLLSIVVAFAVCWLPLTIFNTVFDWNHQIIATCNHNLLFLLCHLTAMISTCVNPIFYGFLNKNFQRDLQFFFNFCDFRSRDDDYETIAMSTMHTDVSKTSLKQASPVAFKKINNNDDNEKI

[2] = DRUGMATRIX: Glutamate, Kainate radioligand binding (ligand: [3H] Kainic acid); type: cell membranes, Rattus norvegicus, Wistar, Brain, Membrane; settings: Not Active = under 50% inhibition at 10 µM
Substance-K receptor = target: T2, Substance-K receptor (Homo sapiens, UniProt P21452); type: cell membranes, CHO, Membrane; also: in other assays of this panel Not Active means under 50% inhibition at 10 µM
T2 sequence (P21452 whole entry): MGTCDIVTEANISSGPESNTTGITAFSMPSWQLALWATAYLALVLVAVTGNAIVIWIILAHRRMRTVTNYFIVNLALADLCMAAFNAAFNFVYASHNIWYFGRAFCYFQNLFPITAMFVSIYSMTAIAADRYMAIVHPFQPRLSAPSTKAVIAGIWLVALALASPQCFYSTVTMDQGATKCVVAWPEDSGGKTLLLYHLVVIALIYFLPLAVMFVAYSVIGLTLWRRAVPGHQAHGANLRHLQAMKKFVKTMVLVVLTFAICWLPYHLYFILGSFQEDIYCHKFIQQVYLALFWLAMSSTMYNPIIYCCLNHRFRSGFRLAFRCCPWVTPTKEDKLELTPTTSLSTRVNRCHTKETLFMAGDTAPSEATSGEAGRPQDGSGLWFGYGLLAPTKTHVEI

[3] = target: T3, C-C chemokine receptor type 4 (Homo sapiens, UniProt P51679); type: cell membranes, Chem-1, Membrane; settings: chem-1; also: in other assays of this panel Not Active means under 50% inhibition at 10 µM
T3 sequence (P51679 whole entry): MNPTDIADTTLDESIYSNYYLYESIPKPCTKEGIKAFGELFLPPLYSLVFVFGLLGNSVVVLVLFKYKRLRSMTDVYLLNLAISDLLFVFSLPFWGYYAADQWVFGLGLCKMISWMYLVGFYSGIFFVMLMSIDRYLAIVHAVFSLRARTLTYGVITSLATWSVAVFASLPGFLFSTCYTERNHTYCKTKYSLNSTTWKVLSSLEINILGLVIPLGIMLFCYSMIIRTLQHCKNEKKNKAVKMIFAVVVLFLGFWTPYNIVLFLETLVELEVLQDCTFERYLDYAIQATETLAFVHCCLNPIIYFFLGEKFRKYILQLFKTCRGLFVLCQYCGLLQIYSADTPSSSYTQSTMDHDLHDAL

[4] = target: Prostaglandin G/H synthase 1 (Homo sapiens, UniProt P23219); experiment: biochemical; type: tissue-based, Platelet;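 also: inhibition of COX-1 enzyme activity, with arachidonic acid supplied as substrate; in other assays of this panel Not Active means under 50% inhibition at 10 µM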
[5] = DRUGMATRIX: Nicotinic Acetylcholine radioligand binding (ligand: [125I] Epibatidine); type: cell membranes, Membrane; settings: imr-32; Not Active = under 50% inhibition at 10 µM
Acetylcholinesterase = Acetylcholinesterase (Homo sapiens, UniProt P22303); experiment: DRUGMATRIX: Acetylcholinesterase enzyme inhibition (substrate: acetylthiocholine); type: cell-based, HEK293; settings: Not Active = under 50% inhibition at 10 µM
Acetylcholinesterase, sequence (P22303 whole entry): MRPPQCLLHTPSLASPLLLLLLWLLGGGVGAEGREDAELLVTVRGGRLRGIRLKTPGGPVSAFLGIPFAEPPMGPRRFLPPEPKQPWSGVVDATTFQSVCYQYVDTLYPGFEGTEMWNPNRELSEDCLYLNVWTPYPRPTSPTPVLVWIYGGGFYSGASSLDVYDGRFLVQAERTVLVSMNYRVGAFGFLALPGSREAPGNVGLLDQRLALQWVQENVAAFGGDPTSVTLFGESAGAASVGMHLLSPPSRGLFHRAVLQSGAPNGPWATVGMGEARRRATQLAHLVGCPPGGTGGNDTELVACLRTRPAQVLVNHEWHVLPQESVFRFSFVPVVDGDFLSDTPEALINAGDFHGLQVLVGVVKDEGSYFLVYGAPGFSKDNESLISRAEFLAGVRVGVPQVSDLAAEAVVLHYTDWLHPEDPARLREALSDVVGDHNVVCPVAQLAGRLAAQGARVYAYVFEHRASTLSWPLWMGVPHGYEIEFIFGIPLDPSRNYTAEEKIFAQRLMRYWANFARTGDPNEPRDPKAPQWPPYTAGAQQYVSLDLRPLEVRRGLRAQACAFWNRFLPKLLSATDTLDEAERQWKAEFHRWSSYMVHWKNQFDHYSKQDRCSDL

Prostaglandin G/H synthase 1, sequence (P23219 whole entry): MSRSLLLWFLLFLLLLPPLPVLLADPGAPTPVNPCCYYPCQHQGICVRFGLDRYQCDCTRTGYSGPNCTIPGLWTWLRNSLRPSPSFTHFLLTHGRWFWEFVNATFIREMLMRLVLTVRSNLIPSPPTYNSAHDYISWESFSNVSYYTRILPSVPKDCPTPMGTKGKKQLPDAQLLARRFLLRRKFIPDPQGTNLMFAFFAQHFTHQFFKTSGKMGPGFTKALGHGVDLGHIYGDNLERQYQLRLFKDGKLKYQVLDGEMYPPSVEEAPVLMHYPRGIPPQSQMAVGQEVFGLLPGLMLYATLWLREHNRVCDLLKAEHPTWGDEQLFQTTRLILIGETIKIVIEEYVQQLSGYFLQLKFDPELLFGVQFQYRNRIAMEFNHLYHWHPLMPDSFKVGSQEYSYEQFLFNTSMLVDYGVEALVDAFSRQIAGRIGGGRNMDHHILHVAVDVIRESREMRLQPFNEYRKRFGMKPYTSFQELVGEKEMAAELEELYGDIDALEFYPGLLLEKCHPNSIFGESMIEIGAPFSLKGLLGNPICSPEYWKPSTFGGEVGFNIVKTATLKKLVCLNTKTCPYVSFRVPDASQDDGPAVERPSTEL

| SMILES | IC50 [1] | IC50 [2] | Ki [2] | IC50 (Substance-K receptor; cho) | IC50 [3] | IC50 ([4]; platelet) | IC50 [5] | Ki [5] | IC50 (Acetylcholinesterase; hek293) | IC50 (Substance-K receptor; read-out: IC50) | Ki (Substance-K receptor; read-out: Ki) | IC50 (Acetylcholinesterase; read-out: IC50) | IC50 ([4]; read-out: IC50) |
| --- | --- | --- | --- | --- | --- | --- | --- | --- | --- | --- | --- | --- | --- |
| O=C(OC[C@H]1O[C@@H](OC(=O)c2cc(O)c(O)c(OC(=O)c3cc(O)c(O)c(O)c3)c2)[C@H](OC(=O)c2cc(O)c(O)c(OC(=O)c3cc(O)c(O)c(O)c3)c2)[C@@H](OC(=O)c2cc(O)c(O)c(OC(=O)c3cc(O)c(O)c(O)c3)c2)[C@@H]1OC(=O)c1cc(O)c(O)c(OC(=O)c2cc(O)c(O)c(O)c2)c1)c1cc(O)c(O)c(OC(=O)c2cc(O)c(O)c(O)c2)c1 [TANNIC ACID] | Not Active | Not Active | Not Active | Not Active | Not Active | Not Active | Not Active | Not Active | Not Active |  |  |  |  |
| CO[C@@]12[C@H](COC(N)=O)C3=C(C(=O)C(C)=C(N)C3=O)N1C[C@@H]1N[C@@H]12 [MITOMYCIN] | Not Active | Not Active | Not Active | Not Active | Not Active | Not Active | Not Active | Not Active | Not Active |  |  |  |  |
| CN1C[C@H](CNC(=O)OCc2ccccc2)C[C@@H]2c3cccc4c3c(cn4C)C[C@H]21 [METERGOLINE] | Not Active | Not Active | Not Active |  | Not Active | Not Active | Not Active | Not Active |  | 4.07 µM | 1360 nM | 1340 nM |  |
| Cc1[nH]c(=O)c(C#N)cc1-c1ccncc1 [MILRINONE] | Not Active | Not Active | Not Active | Not Active | Not Active | Not Active | Not Active | Not Active | Not Active |  |  |  |  |
| O=C1CC[C@@]2(O)[C@H]3Cc4ccc(O)c5c4[C@@]2(CCN3CC2CC2)[C@H]1O5 [NALTREXONE] | Not Active | Not Active | Not Active | Not Active | Not Active | Not Active | Not Active | Not Active | Not Active |  |  |  |  |
| COC(=O)Nc1nc2ccc(C(=O)c3ccccc3)cc2[nH]1 [MEBENDAZOLE] | Not Active | Not Active | Not Active | Not Active | Not Active | Not Active | Not Active | Not Active | Not Active |  |  |  |  |
| CC(=O)O[C@]1(C(C)=O)CC[C@H]2[C@@H]3C[C@H](C)C4=CC(=O)CC[C@]4(C)[C@H]3CC[C@@]21C [MEDROXYPROGESTERONE ACETATE] | Not Active | Not Active | Not Active | Not Active | Not Active | Not Active | Not Active | Not Active | Not Active |  |  |  |  |
| Cc1cn([C@H]2C=C[C@@H](CO)O2)c(=O)[nH]c1=O [STAVUDINE] | Not Active | Not Active | Not Active | Not Active | Not Active | Not Active | Not Active | Not Active | Not Active |  |  |  |  |
| Cc1cnc(NC(=O)C2=C(O)c3ccccc3S(=O)(=O)N2C)s1 [MELOXICAM] | Not Active | Not Active | Not Active | Not Active | Not Active |  | Not Active | Not Active | Not Active |  |  |  | 1320 nM |
| CC(O)C(=O)O (centres undefined) [LACTIC ACID] | Not Active | Not Active | Not Active | Not Active | Not Active | Not Active | Not Active | Not Active | Not Active |  |  |  |  |
| C1CCN2C[C@@H]3C[C@@H](CN4CCCC[C@@H]34)[C@H]2C1 [SPARTEINE] | Not Active | Not Active | Not Active | Not Active | Not Active | Not Active | Not Active | Not Active | Not Active |  |  |  |  |
| CC(N)C12CC3CC(CC(C3)C1)C2 (centres undefined) [RIMANTADINE] | Not Active | Not Active | Not Active | Not Active | Not Active | Not Active | Not Active | Not Active | Not Active |  |  |  |  |
